The supplement of paper PMC10307832

Columns and labels:
Test in all cases: relative viability (nuclei count vs DMSO), 5 days (fraction); higher = more cells survive
Metformin + Tozasertib = compound: CN(C)C(=N)NC(=N)N [Metformin] + Cc1cc(Nc2cc(N3CCN(C)CC3)nc(Sc3ccc(NC(=O)C4CC4)cc3)n2)n[nH]1 [Tozasertib] (partner 0.1 µM)
Outline: (§1)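 Lung cancer cell lines in 1536-well plates were dosed by pin tool the day after seeding, either with one drug alone or with a fixed anchor-drug dose plus five library-drug doses (not always all listed) in √10 steps. After 5 days, cells were fixed and their nuclei stained in one step (final 0.05% Triton X-100, 1% formaldehyde, 1 ug/ml Hoechst), then counted on 4× images. Relative viability is the nuclei count in treated wells divided by that in vehicle wells. Values are medians of duplicate plates.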

Apatinib + Navitoclax = compound: N#CC1(c2ccc(NC(=O)c3cccnc3NCc3ccncc3)cc2)CCCC1 [Apatinib] + CC1(C)CCC(c2ccc(Cl)cc2)=C(CN2CCN(c3ccc(C(=O)NS(=O)(=O)c4ccc(N[C@H](CCN5CCOCC5)CSc5ccccc5)c(S(=O)(=O)C(F)(F)F)c4)cc3)CC2)C1 [Navitoclax] (partner 0.5 µM)
Outline: as §1

Apatinib + Crizotinib = compound: N#CC1(c2ccc(NC(=O)c3cccnc3NCc3ccncc3)cc2)CCCC1 [Apatinib] + C[C@@H](Oc1cc(-c2cnn(C3CCNCC3)c2)cnc1N)c1c(Cl)ccc(F)c1Cl [Crizotinib] (partner 1 µM)
Outline: as §1

Apatinib + Pemetrexed = compound: N#CC1(c2ccc(NC(=O)c3cccnc3NCc3ccncc3)cc2)CCCC1 [Apatinib] + Nc1nc2[nH]cc(CCc3ccc(C(=O)N[C@@H](CCC(=O)O)C(=O)O)cc3)c2c(=O)[nH]1 [Pemetrexed] (partner 0.2 µM)
Outline: as §1

Cell Line | relative viability (Metformin + Tozasertib; first compound 10 µM) | relative viability (Metformin + Tozasertib; first compound 31.62 µM) | relative viability (Metformin + Tozasertib; first compound 100 µM) | relative viability (Metformin + Tozasertib; first compound 316.23 µM) | relative viability (Metformin + Tozasertib; first compound 1000 µM) | relative viability (Apatinib + Navitoclax; first compound 0.08 µM) | relative viability (Apatinib + Navitoclax; first compound 0.253 µM) | relative viability (Apatinib + Navitoclax; first compound 0.8 µM) | relative viability (Apatinib + Navitoclax; first compound 2.53 µM) | relative viability (Apatinib + Navitoclax; first compound 8 µM) | relative viability (Apatinib + Crizotinib; first compound 0.08 µM) | relative viability (Apatinib + Crizotinib; first compound 0.253 µM) | relative viability (Apatinib + Crizotinib; first compound 0.8 µM) | relative viability (Apatinib + Crizotinib; first compound 2.53 µM) | relative viability (Apatinib + Crizotinib; first compound 8 µM) | relative viability (Apatinib + Pemetrexed; first compound 0.08 µM) | relative viability (Apatinib + Pemetrexed; first compound 0.253 µM) | relative viability (Apatinib + Pemetrexed; first compound 0.8 µM) | relative viability (Apatinib + Pemetrexed; first compound 2.53 µM) | relative viability (Apatinib + Pemetrexed; first compound 8 µM)
NCI-H1944 | 0.314 | 0.279 | 0.288 | 0.245 | 0.297 | 1.04 | 1.06 | 0.976 | 0.974 | 0.965 | 1.03 | 1.17 | 0.998 | 0.983 | 0.911 | 0.687 | 0.562 | 0.501 | 0.456 | 0.51
SK-MES-1 | 0.624 | 0.693 | 0.75 | 0.662 | 0.771 | 1.25 | 1.17 | 1.24 | 1.14 | 0.965 | 0.983 | 0.937 | 0.897 | 0.955 | 0.796 | 0.976 | 0.915 | 0.937 | 0.757 | 0.568
EPLC-272H | 0.292 | 0.212 | 0.288 | 0.192 | 0.238 | 1.06 | 1.05 | 0.961 | 1.04 | 0.731 | 0.944 | 0.933 | 0.767 | 0.8 | 0.991 | 0.275 | 0.333 | 0.359 | 0.322 | 0.199
NCI-H2087 | – | 0.281 | 0.246 | 0.253 | 0.245 | 1.06 | 1.05 | 0.847 | 0.963 | 0.782 | 0.89 | 0.799 | 0.741 | 0.614 | 0.7 | 0.657 | 0.682 | 0.65 | 0.619 | 0.758
PC-3 [JPC-3] | 0.772 | 0.811 | 0.853 | 0.779 | 0.825 | 0.785 | 0.764 | 0.746 | 0.816 | 0.737 | 1.02 | 0.962 | 0.922 | 0.933 | 0.901 | – | 1.05 | 1.05 | 0.726 | 0.807
NCI-H441 | – | 0.448 | 0.511 | 0.438 | 0.587 | 1.07 | 0.5 | 0.728 | 0.519 | 0.31 | 0.789 | 0.756 | 0.809 | 0.416 | 0.426 | 0.302 | 0.274 | 0.261 | 0.205 | 0.192
LCLC-97TM1 | 0.18 | 0.212 | 0.212 | 0.241 | 0.231 | 0.485 | 0.401 | 0.369 | 0.397 | 0.18 | 0.449 | 0.409 | 0.372 | 0.264 | 0.161 | 0.179 | 0.139 | 0.161 | 0.141 | 0.146
RERF-LC-KJ | 0.329 | 0.273 | 0.403 | 0.277 | 0.352 | 0.931 | 1.04 | 0.874 | 0.557 | 0.997 | 0.776 | 0.834 | 0.778 | 0.704 | 0.629 | 0.493 | 0.466 | 0.381 | 0.451 | 0.327
NCI-H2170 | 0.731 | 0.733 | 0.779 | 0.758 | 0.693 | 0.617 | 0.646 | 0.568 | 0.599 | 0.498 | 1.23 | 1.22 | 1.11 | 1.12 | 1.07 | 0.288 | 0.275 | 0.262 | 0.224 | 0.251
NCI-H2405 | 0.701 | 0.732 | 0.801 | 0.763 | 0.716 | 1.03 | 1.07 | 1.01 | 0.832 | 0.803 | 0.936 | 0.863 | 0.883 | 0.762 | 0.811 | 1.15 | 1.1 | 1.08 | 0.898 | 0.867
UMC-11 | 0.211 | 0.188 | 0.202 | 0.2 | 0.209 | 0.343 | 0.335 | 0.319 | 0.247 | 0.266 | 0.619 | 0.57 | 0.617 | 0.519 | 0.493 | 0.783 | 0.771 | 0.716 | 0.663 | 0.433
NCI-H838 | 0.28 | 0.296 | 0.349 | 0.312 | 0.258 | 1.25 | 1.27 | 1.09 | 1.12 | 1.05 | 0.892 | 0.936 | 0.77 | 0.76 | 0.775 | 0.259 | 0.291 | 0.228 | 0.221 | 0.207
SK-LU-1 | 0.263 | 0.311 | 0.272 | 0.263 | 0.307 | 0.965 | 1.35 | 0.705 | 0.638 | 0.631 | 1.04 | 0.806 | 0.761 | 0.785 | 0.566 | 1.09 | 0.995 | 0.918 | 0.544 | 0.32
SW 1573 | 0.153 | 0.119 | 0.175 | 0.161 | 0.162 | 1.01 | 1 | 1.19 | 0.927 | 0.885 | 0.946 | 0.867 | 0.748 | 0.74 | 0.58 | 0.87 | 0.854 | 0.806 | 0.708 | 0.394
LK-2 | 0.163 | 0.189 | 0.183 | 0.174 | 0.174 | 0.879 | 0.857 | 0.885 | 0.769 | 0.634 | 0.243 | 0.218 | 0.212 | 0.237 | 0.242 | 0.255 | 0.243 | 0.255 | 0.181 | 0.134
NCI-H1993 | 0.622 | 0.551 | 0.609 | 0.571 | 0.596 | 1.13 | 0.822 | 0.813 | 0.688 | 0.772 | 0.943 | 0.868 | 0.782 | 0.801 | 0.68 | 0.593 | 0.566 | 0.605 | 0.549 | 0.549
NCI-H1437 | 0.403 | 0.44 | 0.405 | 0.411 | 0.418 | 1.12 | 1.14 | 0.939 | 0.928 | 0.776 | 1.01 | 1 | 0.92 | 0.726 | 0.632 | 0.328 | 0.293 | 0.306 | 0.29 | 0.256
H3255 | 0.603 | 0.551 | 0.615 | 0.562 | 0.592 | 0.512 | 0.62 | 0.34 | 0.52 | 0.607 | 0.956 | 0.841 | 0.907 | 0.723 | 0.786 | 0.521 | 0.545 | 0.537 | 0.518 | 0.533
NCI-H322M | 0.48 | 0.454 | 0.437 | 0.432 | 0.419 | 1.28 | 1.11 | 1.25 | 1.32 | 1.12 | 0.917 | 0.925 | 0.946 | 0.825 | 0.776 | 0.605 | 0.633 | 0.623 | 0.593 | 0.54
CAL-12T | 0.437 | 0.388 | 0.408 | 0.363 | 0.35 | 1.26 | 1.23 | 1.1 | 1.17 | 1.03 | 0.801 | 0.569 | 0.694 | 0.695 | 0.459 | 1.38 | 1.25 | 1.1 | 0.897 | 0.917
PC-14 | 0.618 | 0.714 | 0.673 | 0.674 | 0.814 | 1.04 | 0.968 | 0.967 | 0.986 | 0.937 | 0.925 | 0.99 | 0.841 | 0.863 | 0.915 | 0.142 | 0.133 | 0.124 | 0.0984 | 0.0405
NCI-H2009 | 0.761 | 0.856 | 0.802 | 0.759 | 0.783 | 1.22 | 1.23 | 1.12 | 0.913 | 0.826 | 1.05 | 1.1 | 1.02 | 0.814 | 0.698 | 1.07 | 0.996 | 0.902 | 0.879 | 0.661
NCI-H2347 | 0.627 | 0.51 | – | 0.492 | 0.63 | 0.783 | 0.698 | 0.948 | 0.728 | 0.74 | 0.795 | 0.751 | 0.772 | 0.578 | 0.645 | 0.477 | 0.404 | 0.449 | 0.409 | 0.409
NCI-H23 | 0.382 | 0.49 | 0.433 | 0.445 | 0.498 | 1.01 | 0.931 | 0.742 | 0.725 | 0.794 | 0.49 | 0.578 | 0.421 | 0.49 | 0.57 | 0.747 | 0.855 | 0.677 | 0.57 | 0.439
